{"source": "paper PMC9127750", "about": "“Structure-based design of CDC42 effector interaction inhibitors for the treatment of cancer” (Cell reports, 2022)", "test_system": "WM3248 melanoma cells, 486 antibodies", "test": "Reverse phase protein arrays (RPPA)", "format": "cell-based, Human", "excerpt": "Pellets were snap frozen in liquid nitrogen and shipped to MD Anderson Cancer Center core RPPA facility for RPPA analysis (Table S5). Three biological replicates for each sample were generated.\nNomenclatures on the RPPA heatmaps: name_of_antibody.species_of_antibody.status_of_antibody. V - antibody validated; C - validation of antibody in progress; Q - antibody nonspecific; E – under evaluation; antibodies raised in M - mouse, G - goat, R - rabbit, or T - rat.", "note": "Where “and” joins values, the source holds several entries; their conditions need not be identical. Equal values may be shown once.", "data": [{"smiles": "CN(C)c1cccc(Nc2cc(-c3ccccc3)nc(C3CCNCC3)n2)c1", "note": "[ARN22089, N1,N1-dimethyl-N3-(6-phenyl-2-(piperidin-4-yl)pyrimidin-4-yl)benzene-1,3-diamine]", "values": [{"measurement": "c.Jun_pS73.R.V normalized signal", "setting": "Norm_20 Average", "result": 0.769}, {"measurement": "c.Kit.R.V normalized signal", "setting": "Norm_20 Average", "result": 1.333}, {"measurement": "c.Met_pY1234_Y1235.R.V normalized signal", "setting": "Norm_20 Average", "result": 1.008}, {"measurement": "c.Myc.R.C normalized signal", "setting": "Norm_20 Average", "result": 0.930}, {"measurement": "cGAS.R.V normalized signal", "setting": "Norm_20 Average", "result": 0.995}, {"measurement": "cdc2_pY15.R.C normalized signal", "setting": "Norm_20 Average", "result": 0.940}, {"measurement": "cdc25C.R.V normalized signal", "setting": "Norm_20 Average", "result": 0.832}, {"measurement": "C.Raf.R.C normalized signal", "setting": "Norm_20 replicates", "result": "0.926 and 0.909 and 1.022"}, {"measurement": "C.Raf_pS338.R.V normalized signal", "setting": "Norm_20 replicates", "result": "1.047 and 0.977 and 1.202"}, {"measurement": "CA9.R.C normalized signal", "setting": "Norm_20 replicates", "result": "0.834 and 0.857 and 0.980"}, {"measurement": "CD2.M.C normalized signal", "setting": "Norm_20 replicates", "result": "0.856 and 0.882 and 0.876"}, {"measurement": "CD4.R.V normalized signal", "setting": "Norm_20 replicates", "result": "1.114 and 0.892 and 1.008"}, {"measurement": "CD5.M.C normalized signal", "setting": "Norm_20 replicates", "result": "0.915 and 0.968 and 0.950"}, {"measurement": "CD20.R.C normalized signal", "setting": "Norm_20 replicates", "result": "1.024 and 1.514 and 1.531"}, {"measurement": "CD26.R.V normalized signal", "setting": "Norm_20 replicates", "result": "1.033 and 0.940 and 1.351"}, {"measurement": "CD29.M.V normalized signal", "setting": "Norm_20 replicates", "result": "0.857 and 0.910 and 0.908"}, {"measurement": "CD31.M.V normalized signal", "setting": "Norm_20 replicates", "result": "0.884 and 0.896"}, {"measurement": "CD38.R.C normalized signal", "setting": "Norm_20 replicates", "result": "1.108 and 1.163"}, {"measurement": "CD44.R.C normalized signal", "setting": "Norm_20 replicates", "result": "0.959 and 1.005"}, {"measurement": "CD45.M.V normalized signal", "setting": "Norm_20 replicates", "result": "0.835 and 0.934"}, {"measurement": "CD49b.M.V normalized signal", "setting": "Norm_20 replicates", "result": "0.952 and 1.078 and 1.005"}, {"measurement": "CD68.M.C normalized signal", "setting": "Norm_20 replicates", "result": "0.919 and 0.910"}, {"measurement": "CD74.M.V normalized signal", "setting": "Norm_20 replicates", "result": "0.908 and 0.967 and 0.901"}, {"measurement": "CD134.R.V normalized signal", "setting": "Norm_20 replicates", "result": "0.960 and 0.966"}, {"measurement": "CD171.M.V normalized signal", "setting": "Norm_20 replicates", "result": "0.652 and 0.837 and 0.648"}, {"measurement": "CDK1_pT14.R.C normalized signal", "setting": "Norm_20 replicates", "result": "1.055 and 0.710 and 1.260"}, {"measurement": "CDK9.R.V normalized signal", "setting": "Norm_20 replicates", "result": "0.996 and 0.856 and 0.946"}, {"measurement": "CDKN2A.R.C normalized signal", "setting": "Norm_20 replicates", "result": "0.854 and 0.981 and 0.927"}, {"measurement": "CDT1.R.V normalized signal", "setting": "Norm_20 replicates", "result": "0.785 and 0.945 and 0.841"}, {"measurement": "CENP.A.R.V normalized signal", "setting": "Norm_20 replicates", "result": "0.821 and 2.735 and 1.018"}, {"measurement": "CHD1L.R.V normalized signal", "setting": "Norm_20 replicates", "result": "0.858 and 0.933 and 1.056"}, {"measurement": "CIITA.R.C normalized signal", "setting": "Norm_20 replicates", "result": "0.943 and 1.115 and 1.149"}, {"measurement": "COG3.R.V normalized signal", "setting": "Norm_20 replicates", "result": "0.982 and 0.987 and 1.164"}, {"measurement": "CRABP1.R.C normalized signal", "setting": "Norm_20 replicates", "result": "0.873 and 1.063"}, {"measurement": "CRABP2.R.V normalized signal", "setting": "Norm_20 replicates", "result": "0.668 and 1.048 and 0.808"}, {"measurement": "CREB_pS133.R.C normalized signal", "setting": "Norm_20 replicates", "result": "0.993 and 1.115 and 1.463"}, {"measurement": "CSK.R.C normalized signal", "setting": "Norm_20 replicates", "result": "0.890 and 0.821 and 1.057"}, {"measurement": "Calnexin.R.V normalized signal", "setting": "Norm_20 replicates", "result": "0.950 and 0.927 and 0.903"}, {"measurement": "Caspase.3.cleaved.R.C normalized signal", "setting": "Norm_20 replicates", "result": "1.050 and 1.052 and 0.937"}, {"measurement": "Caspase.7.cleaved..R.C normalized signal", "setting": "Norm_20 replicates", "result": "1.145 and 0.913 and 0.981"}, {"measurement": "Caspase.8.M.Q normalized signal", "setting": "Norm_20 replicates", "result": "0.921 and 1.010 and 0.953"}, {"measurement": "Caspase.8.cleaved.R.C normalized signal", "setting": "Norm_20 replicates", "result": "0.981 and 0.904 and 0.986"}, {"measurement": "Caveolin.1.R.V normalized signal", "setting": "Norm_20 replicates", "result": "0.827 and 0.896 and 0.874"}, {"measurement": "Cdc6.R.V normalized signal", "setting": "Norm_20 replicates", "result": "1.058 and 0.691 and 0.803"}, {"measurement": "Cdc42.R.C normalized signal", "setting": "Norm_20 replicates", "result": "0.945 and 1.025 and 1.019"}, {"measurement": "Chk1.M.C normalized signal", "setting": "Norm_20 replicates", "result": "0.656 and 0.821 and 0.882"}, {"measurement": "Chk1_pS296.R.V normalized signal", "setting": "Norm_20 replicates", "result": "0.970 and 0.828 and 1.051"}, {"measurement": "Chk1_pS345.R.C normalized signal", "setting": "Norm_20 replicates", "result": "1.119 and 1.167 and 1.225"}, {"measurement": "Chk2.M.V normalized signal", "setting": "Norm_20 replicates", "result": "0.658 and 0.864 and 1.104"}, {"measurement": "Chk2_pT68.R.C normalized signal", "setting": "Norm_20 replicates", "result": "0.997 and 1.290 and 1.096"}, {"measurement": "Claudin.7.R.V normalized signal", "setting": "Norm_20 replicates", "result": "0.881 and 1.747 and 1.050"}, {"measurement": "Collagen.VI.R.V normalized signal", "setting": "Norm_20 replicates", "result": "1.201 and 0.989 and 0.848"}, {"measurement": "Complex.II.Subunit.M.V normalized signal", "setting": "Norm_20 replicates", "result": "0.922 and 0.878 and 1.206"}, {"measurement": "Connexin.43.R.C normalized signal", "setting": "Norm_20 replicates", "result": "0.931 and 1.019"}, {"measurement": "Coup.TFII.R.C normalized signal", "setting": "Norm_20 replicates", "result": "1.109 and 0.920 and 0.985"}, {"measurement": "Cox2.R.C normalized signal", "setting": "Norm_20 replicates", "result": "1.356 and 1.253 and 1.438"}, {"measurement": "Cox.IV.R.V normalized signal", "setting": "Norm_20 replicates", "result": "1.130 and 0.864 and 0.981"}, {"measurement": "Creb.R.C normalized signal", "setting": "Norm_20 replicates", "result": "0.982 and 1.104"}, {"measurement": "CtIP.R.V normalized signal", "setting": "Norm_20 replicates", "result": "0.991 and 0.925 and 0.970"}, {"measurement": "Cyclin.B1.R.V normalized signal", "setting": "Norm_20 replicates", "result": "0.884 and 0.735 and 1.285"}, {"measurement": "Cyclin.D1.R.C normalized signal", "setting": "Norm_20 replicates", "result": "0.990 and 1.056 and 0.913"}, {"measurement": "Cyclin.D3.M.V normalized signal", "setting": "Norm_20 replicates", "result": "0.612 and 0.725 and 0.909"}, {"measurement": "Cyclin.E1.R.V normalized signal", "setting": "Norm_20 replicates", "result": "0.878 and 0.955 and 0.872"}, {"measurement": "Cyclophilin.F.M.V normalized signal", "setting": "Norm_20 replicates", "result": "0.906 and 0.884 and 1.010"}, {"measurement": "D.a.Tubulin.R.V normalized signal", "setting": "Norm_20 replicates", "result": "1.030 and 0.992"}, {"measurement": "DAPK1_pS308.M.C normalized signal", "setting": "Norm_20 replicates", "result": "1.481 and 2.154 and 2.593"}, {"measurement": "DAPK2.R.C normalized signal", "setting": "Norm_20 replicates", "result": "0.964 and 1.008"}, {"measurement": "DDB.1.R.V normalized signal", "setting": "Norm_20 replicates", "result": "1.193 and 0.735 and 0.837"}, {"measurement": "DDR1.R.V normalized signal", "setting": "Norm_20 replicates", "result": "0.952 and 1.004 and 1.031"}, {"measurement": "DDR1_pY513.R.C normalized signal", "setting": "Norm_20 replicates", "result": "1.061 and 1.271 and 0.913"}, {"measurement": "DJ1.R.V normalized signal", "setting": "Norm_20 replicates", "result": "1.006 and 0.828 and 0.954"}, {"measurement": "DM.Histone.H3.R.V normalized signal", "setting": "Norm_20 replicates", "result": "3.935 and 0.881"}, {"measurement": "DM.K9.Histone.H3.M.V normalized signal", "setting": "Norm_20 replicates", "result": "2.137 and 0.933"}, {"measurement": "DNA.Ligase.IV.R.C normalized signal", "setting": "Norm_20 replicates", "result": "0.747 and 1.076"}, {"measurement": "DNA_POLG.R.V normalized signal", "setting": "Norm_20 replicates", "result": "1.105 and 1.113 and 1.034"}, {"measurement": "c.Jun_pS73.R.V normalized signal", "setting": "Norm_20 replicates", "result": "0.847 and 0.671 and 0.789"}, {"measurement": "c.Kit.R.V normalized signal", "setting": "Norm_20 replicates", "result": "1.304 and 1.335 and 1.361"}, {"measurement": "c.Met_pY1234_Y1235.R.V normalized signal", "setting": "Norm_20 replicates", "result": "1.007 and 1.003 and 1.014"}, {"measurement": "c.Myc.R.C normalized signal", "setting": "Norm_20 replicates", "result": "0.879 and 0.953 and 0.957"}, {"measurement": "cGAS.R.V normalized signal", "setting": "Norm_20 replicates", "result": "0.887 and 1.171 and 0.926"}, {"measurement": "cdc2_pY15.R.C normalized signal", "setting": "Norm_20 replicates", "result": "0.878 and 0.795 and 1.146"}, {"measurement": "cdc25C.R.V normalized signal", "setting": "Norm_20 replicates", "result": "0.758 and 0.751 and 0.986"}]}]}
